Values quoted from earlier work in US20170189326A1, “Topical Antiaging Polyphenol Compositions” (priority 2015, published 2017).

Tested on: dimethylnitrosamine-induced hepatic injury
Settings: oral administration, rats

SMILES: COc1cc(/C=C/C(=O)CC(=O)/C=C/c2ccc(O)c(OC)c2)ccc1O [curcumin]
- protection against dimethylnitrosamine-induced hepatic injury: protected
